Results on eight compounds are retold here after patent US20240156796A1, “PHARMACEUTICAL COMPOSITION FOR TREATMENT OR PREVENTION OF STRESS-RELATED DISORDERS” (TOKYO UNIVERSITY OF SCIENCE FOUNDATION, priority 2021, published 2024).

Experiment [1] has as its target T1, κ-opioid receptor (Homo sapiens, UniProt P41145).
T1 construct: host or cells: CHO cells
In words: Opioid receptor function test (antagonist activity) against 100 nM U-69593. The experiment is classed as cell-based. The following applies: antagonist activity vs 100 nM U-69593. As to the method: (§1) Method: Using a Lance Ultra cAMP kit (manufactured by PerkinElmer, Inc.), the investigation was conducted in accordance with the prescribed method. In the evaluations of agonist activity, CHO cells expressing each of the human opioid receptors (δ, μ and κ: accession numbers and catalog numbers listed below) and each test compound were reacted for 30 minutes in an assay buffer (1×HBSS, 1 M HEPES, pH 7.4, 250 mM IBMX (isobutylmethylxanthine), 7.5% BSA) in the presence of 10 μM forskolin. Subsequently, the cAMP detection reagent included in the kit was added, and after 1 hour, a time-resolved fluorescence measurement was performed using an EnVision plate reader (manufactured by PerkinElmer, Inc.). […] The Emax value was calculated as the ratio of the maximum response of the test compound relative to a value of 100% for the maximum response of each control drug.
(§2) Evaluations of antagonist activity relative to the μ- and κ-opioid receptors were conducted using the same method as (1) above. A fixed concentration of each control drug (μ: 30 nM DAMGO, κ: 100 nM U-69593), the test compound and CHO cells expressing each of the human opioid receptors were reacted for 30 minutes in an assay buffer in the presence of 10 μM forskolin. The test compounds were evaluated in a concentration range from 10^−12 to 10^−5 M, and subsequent operations were conducted in the same manner as the agonist activity evaluations. A dose-response curve was determined for each test compound using a value of 100% for the response of each control drug in the absence of the test compound, and the concentration that inhibited 50% of the control drug response (namely, the IC50 value) was calculated.

The target of another experiment is T2, μ-opioid receptor (Homo sapiens, UniProt P35372).
T2 construct: host or cells: CHO cells
In words: Opioid receptor function test (antagonist activity) against 30 nM DAMGO. It is filed as cell-based. The following applies: antagonist activity vs 30 nM DAMGO. The method, then:
as §1, §2

The conditions of experiment [2]: animal model, Non-Patent Documents 4 and 5; cited from earlier work.
Experiment [3] relates to mouse. In words: Mouse contextual fear conditioning test (effect on reconsolidation of fear memories), p.o. before second day test. The experiment is classed as in vivo. As to conditions: 20 mg/kg p.o. two hours before second day test; second and third days; test time 2 minutes; vs solvent group (FIG. 2). As to the method: <Mouse Contextual Fear Conditioning Test (Effect on Reconsolidation of Fear Memories)> Using the same contextual fear conditioning test as Example 41, the effect on the reconsolidation of fear memories was investigated. The test was conducted in accordance with the method described in Non-Patent Document 4. Administration of the compound of Example 7 (20 mg/kg p.o.) or a solvent was conducted two hours prior to placing the mouse in the experimental chamber on the second day. In this test, the test time on the second and third days was set to 2 minutes.

Experiment [4] deals with mouse. In words: Mouse contextual fear conditioning test (effect on extinction learning of fear memories). It is filed as in vivo. The following applies: 5, 10, 20 mg/kg p.o. two hours before second day test; second and third days; test time 6 minutes; vs solvent group (FIG. 1). As to the method: The effect of the compound of Example 7 on extinction learning of fear memories was investigated in a mouse contextual fear conditioning test. The test was conducted in accordance with the method described in Non-Patent Document 4. Administration of the compound of Example 7 (5, 10, 20 mg/kg p.o.) or a solvent was conducted two hours prior to placing the mouse in the experimental chamber on the second day.

Experiment [5] concerns mouse. In words: Mouse contextual fear conditioning test (effect on reconsolidation of fear memories), s.c. immediately after second day test. The experiment is classed as in vivo. The following applies: 1 mg/kg, 3 mg/kg s.c. immediately after second day test; third day; vs solvent group (FIG. 3).
In experiment [6] the target is T1, κ-opioid receptor. In words: Opioid receptor function test (agonist activity), Lance Ultra cAMP kit, CHO cells expressing human κ-opioid receptor. It is filed as cell-based. As to conditions: maximum response not reached, response rate at maximum concentration (10 μM), relative to U-69593, read-out: κ-receptor Emax (*response rate at the maximum concentration, reference value). The method, then:
The functional activity of the compounds provided by the present invention relative to μ-, δ- and κ-opioid receptors was investigated.
as §1
SNC80: (+)-4-[(aR)-α-((2S,5R)-4-allyl-2,5-dimethyl-1-piperazinyl)-3-methoxybenzyl]-N,N-diethylbenzamide DAMGO: [D-Ala^2,N-MePhe^4,Gly-ol]enkephalin U-69593: (+)-(5α,7α,8β)-N-methyl-N-[7-(1-pyrrolidinyl)-1-oxaspiro[4.5]dec-8-yl]benzeneacetamide

T2 sequence (P35372 whole entry): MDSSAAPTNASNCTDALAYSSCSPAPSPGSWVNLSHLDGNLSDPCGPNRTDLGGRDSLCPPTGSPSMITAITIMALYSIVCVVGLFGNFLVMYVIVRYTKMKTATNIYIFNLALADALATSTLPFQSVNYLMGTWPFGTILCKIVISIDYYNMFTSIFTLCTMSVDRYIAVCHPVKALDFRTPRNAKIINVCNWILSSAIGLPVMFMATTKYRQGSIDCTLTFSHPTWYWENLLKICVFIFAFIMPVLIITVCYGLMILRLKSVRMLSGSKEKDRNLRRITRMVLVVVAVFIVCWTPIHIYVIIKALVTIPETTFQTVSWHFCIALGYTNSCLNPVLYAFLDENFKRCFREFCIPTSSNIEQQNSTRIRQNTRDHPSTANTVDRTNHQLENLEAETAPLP
T1 sequence (P41145 whole entry): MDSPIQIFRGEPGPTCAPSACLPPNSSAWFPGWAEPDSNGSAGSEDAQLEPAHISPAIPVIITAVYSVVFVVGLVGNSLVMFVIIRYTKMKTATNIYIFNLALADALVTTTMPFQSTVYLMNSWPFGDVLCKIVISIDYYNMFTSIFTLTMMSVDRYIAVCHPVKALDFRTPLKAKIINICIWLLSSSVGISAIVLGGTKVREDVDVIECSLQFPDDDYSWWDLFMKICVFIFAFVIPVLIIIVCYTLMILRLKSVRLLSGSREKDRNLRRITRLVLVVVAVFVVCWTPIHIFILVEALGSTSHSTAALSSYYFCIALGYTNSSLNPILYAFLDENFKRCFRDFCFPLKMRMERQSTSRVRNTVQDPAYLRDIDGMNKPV

Turning to `O=C(c1ccc[nH]c1=O)N1C[C@H]2C[C@@]34CC[C@@H]1[C@@H]2[C@@]31CCN(CC2CC2)[C@@H]4Cc2ccc(O)cc21` [Example 3, 3-((1S,3aR,5aS,6R,11bR,11cS)-14-(cyclopropylmethyl)-10-hydroxy-2,3,3a,4,5,6,7,11c-octahydro-1H-6,11b-(epiminoethano)-1,5a-methanonaphtho[1,2-e]indole-3-carbonyl)pyridin-2(1H)-one], the IC50 at κ-opioid receptor [1] was determined as 11.1 nM; at μ-opioid receptor it was 4.6 nM.
On the same counts, the results for `O=C(c1cccc[n+]1[O-])N1C[C@H]2C[C@@]34CC[C@@H]1[C@@H]2[C@@]31CCN(CC2CC2)[C@@H]4Cc2ccc(O)cc21` [Example 1, 2-((1S,3aR,5aS,6R,11bR,11cS)-14-(cyclopropylmethyl)-10-hydroxy-2,3,3a,4,5,6,7,11c-octahydro-1H-6,11b-(epiminoethano)-1,5a-methanonaphtho[1,2-e]indole-3-carbonyl)pyridine 1-oxide] are 3.3 nM and 4.1 nM.
With `C=CCN1C[C@H](C)N([C@H](c2ccc(C(=O)N(CC)CC)cc2)c2cccc(OC)c2)C[C@H]1C` [SNC80, (+)-4-[(aR)-α-((2S,5R)-4-allyl-2,5-dimethyl-1-piperazinyl)-3-methoxybenzyl]-N,N-diethylbenzamide], the “anxiolytic effect through the extinction of anxiety or fear memories” value in experiment [2] was “exhibited an anxiolytic effect”.
With `O=C(c1cccc(=O)[nH]1)N1C[C@H]2C[C@@]34CC[C@@H]1[C@@H]2[C@@]31CCN(CC2CC2)[C@@H]4Cc2ccc(O)cc21` [Example 7, 6-((1S,3aR,5aS,6R,11bR,11cS)-14-(cyclopropylmethyl)-10-hydroxy-2,3,3a,4,5,6,7,11c-octahydro-1H-6,11b-(epiminoethano)-1,5a-methanonaphtho[1,2-e]indole-3-carbonyl)pyridin-2(1H)-one], the results for the 50% inhibitory concentration (IC50) at κ-opioid receptor [1] and on μ-opioid receptor were 4.6 nM and 1.3 nM, respectively. Besides, the “fear response (freezing behavior)” value with mouse [3] and in the experiment on mouse [5] was “significant reduction in fear response” each time. Besides, the “fear response (freezing behavior, % of test time)” value in the experiment with mouse [4] is “significant reduction in fear response”.
For the compound `CCn1cc(C(=O)N2C[C@H]3C[C@@]45CC[C@@H]2[C@@H]3[C@@]42CCN(CC3CC3)[C@@H]5Cc3ccc(O)cc32)ccc1=O` [Example 28, 5-((1S,3aR,5aS,6R,11bR,11cS)-14-(cyclopropylmethyl)-10-hydroxy-2,3,3a,4,5,6,7,11c-octahydro-1H-6,11b-(epiminoethano)-1,5a-methanonaphtho[1,2-e]indole-3-carbonyl)-1-ethylpyridin-2(1H)-one], the values for the half-inhibitory concentration (IC50) at κ-opioid receptor [1] and at μ-opioid receptor were 4 nM and 2.1 nM, respectively.
In the same order, the values of `Cn1c(C(=O)N2C[C@H]3C[C@@]45CC[C@@H]2[C@@H]3[C@@]42CCN(CC3CC3)[C@@H]5Cc3ccc(O)cc32)cccc1=O` [Example 10, 6-((1S,3aR,5aS,6R,11bR,11cS)-14-(cyclopropylmethyl)-10-hydroxy-2,3,3a,4,5,6,7,11c-octahydro-1H-6,11b-(epiminoethano)-1,5a-methanonaphtho[1,2-e]indole-3-carbonyl)-1-methylpyridin-2(1H)-one] are 3.4 nM and 5.7 nM.
On the same counts, the results for `Cn1cc(C(=O)N2C[C@H]3C[C@@]45CC[C@@H]2[C@@H]3[C@@]42CCN(CC3CC3)[C@@H]5Cc3ccc(O)cc32)ccc1=O` [Example 9, 5-((1S,3aR,5aS,6R,11bR,11cS)-14-(cyclopropylmethyl)-10-hydroxy-2,3,3a,4,5,6,7,11c-octahydro-1H-6,11b-(epiminoethano)-1,5a-methanonaphtho[1,2-e]indole-3-carbonyl)-1-methylpyridin-2(1H)-one] are 3.3 nM and 2.4 nM.
With `O=C(c1cc(=O)cc[nH]1)N1C[C@H]2C[C@@]34CC[C@@H]1[C@@H]2[C@@]31CCN(CC2CC2)[C@@H]4Cc2ccc(O)cc21` [Example 14, 2-((1S,3aR,5aS,6R,11bR,11cS)-14-(cyclopropylmethyl)-10-hydroxy-2,3,3a,4,5,6,7,11c-octahydro-1H-6,11b-(epiminoethano)-1,5a-methanonaphtho[1,2-e]indole-3-carbonyl)pyridin-4(1H)-one], the Emax at 10 µM on κ-opioid receptor [6] was 5.7%.

By IC50 is commonly meant the concentration that gives 50% inhibition.
